In article PMC10294390 (BMC Complementary Medicine and Therapies, 2023):
Read-outs that look alike come from different tables or passages of the source.

How the values were obtained:
DLD-1 colon tumor model = tested on: DLD-1 colon tumor model; design: method as in PMID 14692718; settings: cited from earlier work
SW1116 cells [1] = assay: Cell cycle analysis by flow cytometry (PI); type: cell-based, human; settings: Sora 5 µM, 72 h
Procedure: (§1) The cells were subsequently processed using a DNA-prep kit and DNA-Prep EPICS workstation. The cells were treated with a non-ionic detergent to permeabilize the cell membrane, followed by propidium iodide (PI) and RNase, and incubated at 15–20 °C for 15 min. The cells were resuspended in binding buffer at a concentration of 3–10 × 10^6 cells/ml for optimal staining. Fluorescence was measured using a flow cytometer (Beckman Coulter, Inc.), and the percentage of cells in the different phases of the cell cycle was calculated using the Phoenix statistical software package, Advanced DNA cell cycle software (Phoenix Flow System).

SW837 cells [2] = assay: Cell cycle analysis by flow cytometry (PI); type: cell-based, human; settings: Sora 5 µM, 72 h
Procedure: as §1

[3] = clinical treatment with Sora, cited from earlier work
[4] = tested on: SW1116 human colon cancer cell line; assay: MTT assay, single and schedule-dependent combined treatment; type: cell-based; settings: Sora 0.25-10 µM alone; for IC80: Homo sapiens, SW 1116, 72 h, read-out: IC-values (µM): IC80
Procedure: (§2) The plates were washed, and PPCs [Cur, Kmf, or Que (60 or 120 µM), or Rsv (40 or 80 µM)] were added, followed by incubation at 37 °C for 48 h. For inverted sequential treatment, PPC [Cur, Kmf, or Que (60 or 120 µM), or Rsv (40 or 80 µM)] was added and incubated at 37 °C for 24 h. […] Cell growth was monitored as previously described.

[5] = tested on: SW837 human rectum cancer cell line; assay: as above; type: cell-based; settings: Sora 0.25-10 µM alone; for IC50: Homo sapiens, SW837, SW837, read-out: IC-values (µM): IC50
Procedure: as §2

SW1116 cells [6] = assay: DNA fragmentation assay; type: cell-based, human; settings: Sora 5 µM, PPC 200 and 400 µM, simultaneous combinations, 72 h, Fig. 8A, C
Procedure: (§3) Induction of apoptosis was monitored using a DNA fragmentation assay following the manufacturer’s instructions (Apoptotic DNA Ladder Detection kit; Abcam). […] Cells were subsequently incubated at 37 °C for 72 h. The cells were then trypsinized, harvested, washed, pelleted, and lysed using Tris–EDTA (TE) lysis buffer (35 µl). Enzyme A solution (RNase; 5 µl) was added, followed by incubation at 37 °C for 10 min. Enzyme B solution (proteinase; 5 µl) was then added, followed by incubation at 50 °C for 30 min. Ammonium acetate solution (5 µl) and isopropanol (50 µl) were added to each sample and incubated at -20 °C for 10 min. Finally, the DNA was pelleted, washed with 0.5 ml 70% methanol, and dissolved in 30 µl DNA suspension buffer. The extracted DNA samples were loaded onto a 1.2% agarose gel, along with a loading marker (1 kb DNA ladder), and subjected to electrophoresis, using a running buffer containing 1.35 µg/ml ethidium bromide at 5 V/cm for 1 h. Ethidium bromide-stained DNA bands were visualized using transillumination with UV light.

SW837 cells [7] = assay: DNA fragmentation assay; type: cell-based, human; settings: Sora 5 µM, PPC 200 and 400 µM, sequential combinations, 72 h, Fig. 8B, D
Procedure: as §3

[8] = tested on: SW837 human rectum cancer cell line; assay: MTT assay, single and schedule-dependent combined treatment; type: cell-based; settings: Sora 0.25-10 µM alone
SW1116 cells [9] = assay: Annexin V-FITC/PI double staining, flow cytometry; type: cell-based, human
Procedure: (§4) The levels of cell surface phosphatidylserine were determined to monitor the type of cell death and the kinetics of apoptosis. The CRC cell lines SW1116 and SW837 were seeded (2.5 × 10^5 cells/well) into 24-well plates and incubated in a non-CO2 incubator at 37 °C for 18 h. […] The cells were subsequently washed twice with HBSS and harvested using trypsin. Finally, the cells were double-stained using the Annexin V-FITC-Flous staining kit, according to the manufacturer’s instructions (Roche Diagnostic GmbH). Annexin V-Flous labelling solution containing Annexin V-FITC and PI (100 µl) was added to both the treated and control cell groups and incubated at 15–20 °C for 15 min. The cells (1 × 10^6 cells/ml) were then resuspended in binding buffer, and fluorescence was monitored using flow cytometry (FC500; Beckman Coulter, Inc.).

SW837 cells [10] = assay: Annexin V-FITC/PI double staining, flow cytometry; type: cell-based, human
Procedure: as §4

[11] = arm a of simultaneous Sora and Cur 72 h
[12] = arm a of simultaneous Sora and Kmf 72 h
[13] = arm a of inverted sequential: Que 24 h followed by Sora 48 h
[14] = arm a of inverted sequential: Rsv 24 h followed by Sora 48 h
[15] = arm a of sequential: Sora 24 h followed by Que 48 h
[16] = arm a of sequential: Sora 24 h followed by Rsv 48 h

CNC(=O)c1cc(Oc2ccc(NC(=O)Nc3ccc(Cl)c(C(F)(F)F)c3)cc2)ccn1 [Sora, sorafenib]
delay of tumor cell growth (DLD-1 colon tumor model): 100%
%G0/G1 (cells in G0/G1 phase) (SW1116 cells [1]): 38.0%
%G2/M (cells in G2/M phase) (SW1116 cells [1]): 0.0%
%S (cells in S phase) (SW1116 cells [1]): 61.0%
%SubG1 (cells in sub G1) (SW1116 cells [1]): 8.4%
%G0/G1 (cells in G0/G1 phase) (SW837 cells [2]): 52.0%
%G2/M (cells in G2/M phase) (SW837 cells [2]): 12.9%
%S (cells in S phase) (SW837 cells [2]): 34.9%
%SubG1 (cells in sub G1) (SW837 cells [2]): 1.4%
patients in whom side effects demand a dose reduction [3]: > 60%
patients with inhibition of treatment due to side effects [3]: 6–25%
patients developing toxic side effects ([3]; hand-foot syndrome, diarrhoea, fatigue, rash, weight loss): up to 80%
IC80 [4, 11]: 4.86 µM
IC80 [4, 12]: 4.86 µM
IC80 ([4]; arm a of simultaneous Sora and Que 72 h): 4 µM
IC-values (µM): IC70 ([4]; arm a of inverted sequential: Cur 24 h followed by Sora 48 h): IC70 = 6.00 µM
IC-values (µM): IC60 ([4]; arm a of inverted sequential: Kmf 24 h followed by Sora 48 h): IC60 = 4.86 µM
IC-values (µM): IC60 [4, 13]: IC60 = 4.86 µM
IC-values (µM): IC60 [4, 14]: IC60 = 4.86 µM
IC-values (µM): IC60 ([4]; arm a of sequential: Sora 24 h followed by Cur 48 h): IC60 = 7.70 µM
IC-values (µM): IC60 ([4]; arm a of sequential: Sora 24 h followed by Kmf 48 h): IC60 = 0.57 µM
IC-values (µM): IC60 [4, 15]: IC60 = 0.57 µM
IC-values (µM): IC60 [4, 16]: IC60 = 0.57 µM
IC50 [5, 13]: 6.86 µM
IC50 [5, 14]: 6.57 µM
IC50 [5, 15]: 6.86 µM
IC50 [5, 16]: 6.86 µM
IC-values (µM): IC60 ([5]; SW837, arm a of inverted sequential: Cur 24 h followed by Sora 48 h): IC60 = 8.00 µM
IC-values (µM): IC60 ([5]; SW837, arm a of inverted sequential: Kmf 24 h followed by Sora 48 h): IC60 = 7.43 µM
IC-values (µM): IC70 ([5]; SW837, arm a of sequential: Sora 24 h followed by Cur 48 h): IC70 = 0.86 µM
IC-values (µM): IC60 ([5]; SW837, arm a of sequential: Sora 24 h followed by Kmf 48 h): IC60 = 7.43 µM
induction of apoptosis as indicated by DNA fragmentation (SW1116 cells [6]): marked induction of apoptosis
DNA fragmentation (SW837 cells [7]): increased levels of DNA fragmentation
IC50 ([8]; Homo sapiens, SW837, 72 h, arm a of simultaneous Sora and Que 72 h, read-out: IC-values (µM): IC50): 6.57 µM
IC-values (µM): IC60 [8, 11]: IC60 = 7.43 µM
IC-values (µM): IC60 [8, 12]: IC60 = 7.14 µM
IC-values (µM): IC60 ([8]; arm a of simultaneous Sora and Rsv 72 h): IC60 = 7.71 µM
viability at 5 µM (SW1116 cells [9]; Homo sapiens, SW 1116, 72 h, read-out: B3, percentage of viable cells): 14.1%
B1, percentage of necrotic cells (SW1116 cells [9]; SW1116, Sora 5 µM, 72 h): 13.6%
B2, percentage of late apoptotic cells (SW1116 cells [9]; SW1116, Sora 5 µM, 72 h): 37.3%
B4, percentage of early apoptotic cells (SW1116 cells [9]; SW1116, Sora 5 µM, 72 h): 35%
viability at 5 µM (SW837 cells [10]; Homo sapiens, SW837, 72 h, read-out: B3, percentage of viable cells): 52.4%
B1, percentage of necrotic cells (SW837 cells [10]; SW837, Sora 5 µM, 72 h): 9.6%
B2, percentage of late apoptotic cells (SW837 cells [10]; SW837, Sora 5 µM, 72 h): 33.6%
B4, percentage of early apoptotic cells (SW837 cells [10]; SW837, Sora 5 µM, 72 h): 4.7%
